Measurements: patent US20250268917A1, “PHARMACEUTICAL COMPOSITIONS AND METHODS FOR PREVENTION AND/OR TREATMENT OF INFLAMMATION” (REVEN PHARMACEUTICALS INC., priority 2020, published 2025)

Tests used:
[1] = equivalent to dexamethasone 0.75 mg; cited from earlier work
[2] = tested on: LPS-GalN challenged mice; assay: LPS-GalN model of fatal cytokine storm and sepsis; RJX, DEX or RJX+DEX 2 hours post LPS-GalN; assay type: in vivo, BALB/c mice; details: for Censored: alive at 24 h; for Events: deaths within 24 h
[3] = RJX 0.7 ml/kg (n=20), DEX 0.6 mg/kg (n=10), or both (n=20)

C[C@]12CCC(=O)C=C1CC[C@@H]1[C@@H]2C(=O)C[C@@]2(C)[C@H]1CC[C@]2(O)C(=O)CO [Cortisone]
Approximate Equivalent Dose [1]: 25 mg

C[C@@H]1C[C@H]2[C@@H]3CCC4=CC(=O)C=C[C@]4(C)[C@@]3(F)[C@@H](O)C[C@]2(C)[C@@]1(O)C(=O)CO [DEX, dexamethasone]
Censored ([2]; DEX 0.1 mg/kg i.p. 2 h post LPS-GalN, n=6): 1 | Median survival ([2]; DEX 0.1 mg/kg, n=6): 5.1 h | Proportion (24-h mortality) ([2]; DEX 0.1 mg/kg, n=6): 83.3% | Events ([2]; DEX 0.1 mg/kg, n=6): 5 | Censored ([2]; DEX 0.6 mg/kg i.p. 2 h post LPS-GalN, n=6): 3 | Median survival ([2]; DEX 0.6 mg/kg, n=6): 15.0 h | Proportion (mortality) ([2]; DEX 0.6 mg/kg, n=6): 50.0% | Events ([2]; DEX 0.6 mg/kg, n=6): 3 | Censored ([2]; DEX 6.0 mg/kg i.p. 2 h post LPS-GalN, n=6): 4 | Proportion (mortality) ([2]; DEX 6.0 mg/kg, n=6): 33.3% | Events ([2]; DEX 6.0 mg/kg, n=6): 2 | Proportion (mortality) [2, 3]: 50.0% | Censored ([2]; RJX 0.7 ml/kg (n=20), DEX 0.6 mg/kg (n=10), or both (n=20) 2 h post LPS-GalN): 5 | Events [2, 3]: 5 | lung histopathological ALI scores, range ([2]; RJX 0.7 ml/kg, DEX 6.0 mg/kg, alone or combined, n=6): 1-3 | ALI score of representative mouse ([2]; single dose at 2 hours post-LPS-GalN, sacrificed at 24 hours, FIG. 20): 2

C[C@]12CCC(=O)C=C1CC[C@@H]1[C@@H]2[C@@H](O)C[C@@]2(C)[C@H]1CC[C@]2(O)C(=O)CO [Hydrocortisone]
Approximate Equivalent Dose [1]: 20 mg

C[C@]12C=CC(=O)C=C1CC[C@@H]1[C@@H]2[C@@H](O)C[C@@]2(C)[C@H]1CC[C@]2(O)C(=O)CO [Prednisolone]
Approximate Equivalent Dose [1]: 5 mg

C[C@]12C=CC(=O)C=C1CC[C@H]1[C@@H]3C[C@@H](O)[C@](O)(C(=O)CO)[C@@]3(C)C[C@H](O)[C@@]12F [Triamcinolone]
Approximate Equivalent Dose [1]: 4 mg
